Here are results for nine molecules from article PMC7534274 (Journal of Enzyme Inhibition and Medicinal Chemistry, 2020).

Where two headings read alike, the source gives them in different places.

Assay [1] addresses T1, hCA IX (Homo sapiens, UniProt Q16790).
T1 construct: gene CA9; recombinant, obtained in-house; tumour-associated isoform
The assay can be described thus: stopped-flow CO2 hydrase assay. The assay is classed as biochemical. The source says:
stopped-flow CO2 hydrase assay on hCA IX

In assay [2] the target is T2, hCA I (Homo sapiens, UniProt P00915).
T2 construct: gene CA1; recombinant, obtained in-house; cytosolic isoform
T2 sequence (P00915 2-261): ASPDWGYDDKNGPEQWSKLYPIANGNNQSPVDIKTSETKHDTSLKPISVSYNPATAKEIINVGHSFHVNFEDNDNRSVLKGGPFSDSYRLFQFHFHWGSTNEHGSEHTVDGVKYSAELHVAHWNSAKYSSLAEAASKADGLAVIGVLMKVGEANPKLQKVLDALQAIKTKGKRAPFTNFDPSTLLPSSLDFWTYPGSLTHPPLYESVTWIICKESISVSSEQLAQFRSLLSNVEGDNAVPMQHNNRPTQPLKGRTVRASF
The assay can be described thus: stopped-flow CO2 hydrase assay. Type of assay: biochemical. The text has this: stopped-flow CO2 hydrase assay on hCA I

Assay [3] concerns the target T3, hCA VII (Homo sapiens, UniProt P43166).
T3 construct: gene CA7; recombinant, obtained in-house; cytosolic isoform
The assay can be described thus: stopped-flow CO2 hydrase assay. Type of assay: biochemical. Conditions: read-out: hCA I. The source says:
stopped-flow CO2 hydrase assay on hCA VII

The target in assay [4] is T4, hCA II (Homo sapiens, UniProt P00918).
T4 construct: gene CA2; recombinant, obtained in-house; cytosolic isoform
The assay can be described thus: stopped-flow CO2 hydrase assay. Type of assay: biochemical. As to conditions: read-out: hCA I. The text has this: stopped-flow CO2 hydrase assay on hCA II

The target of assay [5] is T5, hCA XII (Homo sapiens, UniProt O43570).
T5 construct: gene CA12; recombinant, obtained in-house; tumour-associated isoform
T5 sequence (O43570 25-354 limits assumed): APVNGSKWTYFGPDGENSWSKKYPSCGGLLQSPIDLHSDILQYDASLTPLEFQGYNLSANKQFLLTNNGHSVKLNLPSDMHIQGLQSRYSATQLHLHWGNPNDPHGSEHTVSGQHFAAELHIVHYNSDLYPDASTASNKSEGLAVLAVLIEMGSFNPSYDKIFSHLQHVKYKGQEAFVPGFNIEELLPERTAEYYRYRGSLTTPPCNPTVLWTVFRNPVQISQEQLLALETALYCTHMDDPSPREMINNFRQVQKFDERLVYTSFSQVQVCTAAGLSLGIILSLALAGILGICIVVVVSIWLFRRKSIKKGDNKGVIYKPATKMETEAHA
Briefly: stopped-flow CO2 hydrase assay. Type of assay: biochemical. Conditions: […] HEPES pH […] Na2SO4, CO2 substrate; […] h preincubation. The text has this: (§1) stopped-flow CO2 hydrase assay on hCA XII

Assay [6] is described as follows: stopped-flow CO2 hydrase assay. Type of assay: biochemical, Homo sapiens. As to conditions: read-out: hCA I.
From the text: as §1

Where [7] appears, read: […] HEPES pH […] Na2SO4, CO2 substrate, […] h preincubation.

T3 sequence (P43166 whole entry, canonical isoform): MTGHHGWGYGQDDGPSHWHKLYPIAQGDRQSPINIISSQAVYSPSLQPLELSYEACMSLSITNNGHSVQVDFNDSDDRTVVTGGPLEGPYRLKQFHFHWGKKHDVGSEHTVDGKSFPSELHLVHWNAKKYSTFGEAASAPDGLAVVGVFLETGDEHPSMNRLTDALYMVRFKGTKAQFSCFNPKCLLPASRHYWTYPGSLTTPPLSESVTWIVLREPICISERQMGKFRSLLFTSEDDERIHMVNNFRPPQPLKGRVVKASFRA

Take `NS(=O)(=O)Nc1ccc(S(=O)(=O)N2CCCC(C(=O)N3CCN(C(c4ccc(F)cc4)c4ccc(F)cc4)CC3)C2)cc1` (centres unmarked) [compound 9, fluorinated benzhydryl analogue of 8 (para)]: the Ki in assay [1] worked out at 0.902 µM.
Same read-out and setting: the value for `NS(=O)(=O)Nc1cccc(S(=O)(=O)NCCC(=O)N2CCN(C(c3ccccc3)c3ccccc3)CC2)c1` [compound 5, benzhydryl piperazine derivative with beta-alanine spacer (meta benzenesulfonamide)] was 1.02 µM; that for `NS(=O)(=O)Nc1ccccc1S(=O)(=O)N1CCCC(C(=O)N2CCN(C(c3ccccc3)c3ccccc3)CC2)C1` (centres unmarked) [compound 7, benzhydryl piperazine derivative with nipecotic acid spacer (ortho)] was above 10 µM.
Consider `CC(C(=O)NCCOc1ccc2oc(=O)ccc2c1)c1ccc(-c2ccccc2)c(F)c1` (centres unmarked) [compound 2, 6-substituted coumarin containing flurbiprofen], for which the Ki in assay [1] (setting [7]) was 0.0235 µM; in assay [2], above 10 µM; in assay [3], above 10 µM.
Take `O=C(Cc1ccccc1Nc1c(Cl)cccc1Cl)NCCOc1ccc2ccc(=O)oc2c1` [compound 3, 7-substituted coumarin containing diclofenac]: the Ki was 0.0897 µM in assay [1] (setting [7]); above 10 µM in assay [4]; 0.0809 µM in assay [5]; above 10 µM in assay [2]; above 10 µM in assay [3].
On to `O=C(Cc1ccccc1Nc1c(Cl)cccc1Cl)NCCOc1ccc2oc(=O)ccc2c1` [compound 1, 6-substituted coumarin containing diclofenac], for which the Ki in assay [1] (setting [7]) is 0.0289 µM; in assay [4] it was above 10 µM; in assay [5] it was 0.0926 µM; in assay [2], above 10 µM; in assay [3], above 10 µM.
In the case of `NS(=O)(=O)Nc1cccc(S(=O)(=O)N2CCCC(C(=O)N3CCN(C(c4ccc(F)cc4)c4ccc(F)cc4)CC3)C2)c1` (centres unmarked) [compound 6, fluorinated benzhydryl piperazine derivative with nipecotic acid spacer (meta benzenesulfonamide)], the Ki in assay [1] is 0.296 µM.
Turning to `CC(C(=O)NCCOc1ccc2ccc(=O)oc2c1)c1ccc(-c2ccccc2)c(F)c1` (centres unmarked) [compound 4, 7-substituted coumarin containing flurbiprofen], the Ki in assay [1] is 0.159 µM; in assay [4] it was above 10 µM; in assay [6], above 10 µM; in assay [2], above 10 µM; in assay [3], above 10 µM.
In the case of `NS(=O)(=O)Nc1ccc(S(=O)(=O)N2CCCC(C(=O)N3CCN(C(c4ccccc4)c4ccccc4)CC3)C2)cc1` (centres unmarked) [compound 8, benzhydryl piperazine derivative with nipecotic acid spacer (para)], the Ki in assay [1] is 1.41 µM.
